Reference: patent publication US9617262B2, “Antibacterial cyclopental[C]pyrrole substituted 3,4-dihydro-1H-[1,8]naphthyridinones” (Janssen Sciences Ireland UC, priority 2011, dated 2017)
In brackets after ≈: the same amount, converted by molar mass.

Columns and labels:
[1] = tested on: Staphylococcus aureus ATCC 29213; experiment: Antibacterial susceptibility testing: IC90 determination (STA); format: cell-based; details: STA ATCC 29213, 90% inhibitory concentration for bacterial growth
Description: (§1) The following bacteria were used: Staphylococcus aureus ATCC 29213, methicillin-resistant Staphylococcus aureus (MRSA) ATCC 700788 and Escherichia coli ATCC 35218. The bacteria used in this study were grown overnight in flasks containing 100 ml Mueller-Hinton broth (Difco cat. nr. 0757-17) in sterile de-ionized water, with shaking, at 37° C. Stocks were store at −70° C. until use.
(§2) Bacteria were incubated on a tryptic soy agar plate containing 5% sheep blood (Becton Dickinson cat. nr. 254053) for 18-24 hours at 35° C. in aerobic conditions (first passage). For the second passage, fresh Mueller-Hinton broth is inoculated with 5-10 colonies and grown overnight at 35° C. until turbidity (reaching log-phase) in aerobic conditions is reached. The bacterial suspension is then adjusted to 0.5 McFarland density and further diluted 1:100 in Mueller Hinton broth medium. This is used as inoculum.
(§3) MIC assays were performed by the broth microdilution method in a 96-well format (flat-bottom microtitre plates) with a final volume of 0.1 ml Mueller Hinton broth containing two-fold serial dilutions of compounds and inoculated with 5×10^5 CFU/ml of bacteria (standard inoculum size according to CLSI guidelines). Inhibitors are typically varied over the range of 63 to 0.49 μM. The final DMSO concentration in the assay was 1.25% (maximum tolerable DMSO concentration=6%). In the assays where the effect of human serum on the activity of the compounds against S. aureus was tested, human serum was added at a final concentration of 10%. The plates were incubated at 35° C. for 16-20 hours. At the end of incubation the bacterial growth was quantified fluorometrically. For this, resazurin was added to all wells and the plates were re-incubated. The incubation time is dependent on the type of bacteria. A change in color from blue to pink indicated the growth of bacteria. The fluorescence was read in computer-controlled fluorometer (Fluoroskan Ascent FL, Labsystems) at an excitation wavelength 540 nm and an emission wavelength of 590 nm. The % growth inhibition achieved by the compounds was calculated according to standard methods. The IC90 (expressed in μg/ml) was defined as the 90% inhibitory concentration for bacterial growth. A panel of reference compounds were simultaneously tested for QC approval.

[2] = tested on: S. aureus; experiment: Antibacterial susceptibility testing: IC90 determination with 10% human serum (STA + 10% HS); format: cell-based, Staphylococcus aureus; details: human serum at a final concentration of 10%
Description: as §1, §2, §3
The results are depicted in the table D2 below (STA+10% HS).

[3] = tested on: Human HelaM cells; experiment: Cytotoxicity MTT assay (TOX HELAM); format: cell-based; details: 72 hours
Description: Cytotoxicity of the compounds was evaluated using the MTT assay. Human HelaM cells grown in 96-well plates were exposed to serial dilutions of the tested compounds (final volume of 0.2 ml) and incubated for 72 hours at 37° C. and 5% CO2. Inhibitors are typically varied over the range of 25 to 0.8 μM. The final DMSO concentration in the assay is 0.5%. MTT (3-(4,5-Dimethylthiazol-2-yl)-2,5-diphenyltetrazolium bromide, a tetrazole) was added and reduced to purple formazan only in living cells. Solubilization of the formazan crystals was achieved by adding 100 μl 2-propanol. Cell viability was determined by measuring the absorbance of the reduced formazan, giving a purple color, at 540 nm and 690 nm. The absorbance measured at 690 nm was automatically subtracted from the absorbance at 540 nm, to eliminate the effects of non-specific absorption. The percent cytotoxicity achieved by the compounds was calculated according to standard methods. Cytotoxicity is reported as CC50, the concentration that causes a 50% reduction in cell viability.
The results are depicted in the table D2 below (TOX HELAM).

[4] = target: S. aureus ATCC 29213 FabI (Staphylococcus aureus (strain MRSA252), UniProt Q6GI75); experiment: Staphylococcus aureus FabI enzyme inhibition assay; format: biochemical; details: pH 6.5, 30 minutes at room temperature
Description: FabI enzyme inhibition assays were carried out in half-area, 384-well microtitre plates. Compounds were evaluated in 40-μl assay mixtures containing 100 mM NaADA, pH 6.5 (ADA=N-[2-acetamido]-2iminodiacetic acid), 250 μM crotonoyl-CoA, 625 μM NADH and 50 μg/ml S. aureus ATCC 29213 FabI. Inhibitors were typically varied over the range of 50 to 0.39 μM. The reaction mixtures were incubated for 30 minutes at room temperature and the reaction was stopped by adding 200 mM Tris buffer (pH 9.0) to create a pH-shift. The consumption of NADH was monitored by measuring the change in absorbance at […]. By comparing sample readings to those of negative (absence of compound) and positive (absence of enzyme) controls, the percent inhibition of enzymatic activity of the compounds was determined. A best-fit curve is fitted by a minimum of squares method. From this an IC50-value (expressed in μg/ml), resulting in 50% inhibition of enzymatic activity, was obtained.

[5] = In vivo pharmacokinetic and oral bioavailability; details: male Swiss mice; for C0: 20% HP-β-CD solution
Description: The in vivo pharmacokinetics and oral bioavailability of the compound of the examples was/is investigated in male Swiss mice (fed) following single intravenous (i.v.) bolus and oral (p.o.) administration. For the i.v. and p.o. solution formulations, the compound was/is dissolved in a 20% HP-β-CD solution. The pH of the formulations was/is around pH 4. All i.v. formulations were isotonic.

[6] = tested on: Staphylococcus aureus NRS120; LZD-R; experiment: Antimicrobial spectrum, broth microdilution MIC; format: cell-based; details: S. aureus NRS120
Description: (§4) Minimum Inhibitory Concentrations (MICs) were determined in accordance with the Clinical and Laboratory Standards Institute (CLSI) methodology against aerobic bacteria (CLSI M07-A8) (see Clinical and Laboratory Standards Institute. 2009. Methods for dilution antimicrobial susceptibility tests for bacteria that grow aerobically. CLSI document M07-A8, Vol. 29, No. 2.) by the broth microdilution method with cation-adjusted Mueller-Hinton broth (CA-MHB) medium for the majority of organisms, except for Haemophilus influenza, where Haemophilis test medium (HTM) broth was used. Descriptions of the individual organisms can be found in the table. Where possible, ATCC standard strains were tested.
(§5) The inoculum density for the susceptibility testing was standardized to give a final inoculum of approximately 5×10^5 CFU/mL.
(§6) Stock solutions of the compounds were prepared in DMSO at concentrations of 1 mg/mL. Linezolid was prepared in DMSO at a concentration of 2 mg/mL. Stock solutions of all compounds were diluted into CA-MHB to give a range of two-fold dilutions, depending upon the sensitivity of the organism being tested.

[7] = tested on: Escherichia coli Tol C mutant; experiment: Antimicrobial spectrum, broth microdilution MIC; format: cell-based; details: E. coli tolC mutant
Description: as §4, §5, §6

[8] = tested on: Staphylococcus aureus NRS121; LZD-R; experiment: Antimicrobial spectrum, broth microdilution MIC; format: cell-based; details: S. aureus NRS121
Description: as §4, §5, §6

[9] = tested on: Staphylococcus aureus ATCC 29213; reference strain MSSA; experiment: Antimicrobial spectrum, broth microdilution MIC; format: cell-based; details: S. aureus ATCC 29213
Description: as §4, §5, §6

[10] = tested on: Staphylococcus aureus ATCC 43300; reference strain MRSA; experiment: Antimicrobial spectrum, broth microdilution MIC; format: cell-based; details: S. aureus ATCC 43300
Description: as §4, §5, §6

[11] = tested on: Staphylococcus aureus NRS119; LZD-R; experiment: Antimicrobial spectrum, broth microdilution MIC; format: cell-based; details: S. aureus NRS119
Description: as §4, §5, §6

[12] = tested on: Escherichia coli ATCC 25922; reference strain; experiment: Antimicrobial spectrum, broth microdilution MIC; format: cell-based; details: E. coli ATCC 25922
Description: as §4, §5, §6

[13] = tested on: Haemophilus influenzae ATCC 49247; reference strain; experiment: Antimicrobial spectrum, broth microdilution MIC; format: cell-based; details: H. influenza ATCC 49247
Description: as §4, §5, §6

SMILES | STA (361.159) IC90 [1] [µg/mL] | STA + 10% HS (361.169) IC90 [2] [µg/mL] | TOX HELAM (222.125) CC50 [3] [µg/mL] | FabI IC50 [4] [µg/mL] | AUC0-inf ([5]; i.v. 2.5 mg/kg) [ng·h/mL] | Half life (t1/2) ([5]; i.v. 2.5 mg/kg) [h] | Plasma clearance Cl ([5]; i.v. 2.5 mg/kg) [mL/min/kg] | Vdz ([5]; i.v. 2.5 mg/kg) [L/kg] | C0 ([5]; i.v. 2.5 mg/kg) [ng/mL] | MIC90 [7] | MIC90 [9] [µg/mL] | MIC90 [10] [µg/mL] | MIC90 [12] [µg/mL] | also measured
O=C1CCc2cc(/C=C/C(=O)N3CC4C=C(c5ccccc5)CC4C3)cnc2N1 (stereo not shown) [compound 1] | 0.09 | 0.17 | >3.8547 | 0.32 | 7074 | 2.9 | 5.83 | 1.5 | 2921 | ≦0.03 μg/ml | 0.016 (≈ 0.0415 µM) | 0.016 (≈ 0.0415 µM) | >32 | Oral bioavailability ([5]; p.o. 5 mg/kg vs i.v. 2.5 mg/kg): 86%; AUC0-inf ([5]; p.o. 5 mg/kg): 12158 ng·h/mL; Cmax ([5]; p.o. 5 mg/kg): 1720 ng/mL; Half life (t1/2) ([5]; p.o. 5 mg/kg): 3.1 h; Tmax ([5]; p.o. 5 mg/kg): 2.0 h; MIC90 [6]: 0.016 µg/mL (≈ 0.0415 µM); MIC90 [8]: 0.016 µg/mL (≈ 0.0415 µM); MIC90 [11]: 0.03 µg/mL (≈ 0.0778 µM)
O=C1CCc2cc(/C=C/C(=O)N3CC4C=C(c5ccsc5)CC4C3)cnc2N1 (stereo not shown) [compound 10] | 0.08 | 0.13 | >3.915 | 0.53 | 3992 | 1.3 | 10.7 | 1.2 | 4154 | 0.125 µg/mL (≈ 0.319 µM) | 0.015 (≈ 0.0383 µM) | 0.03 (≈ 0.0766 µM) | >8 | Oral bioavailability ([5]; p.o. 10 mg/kg vs i.v. 2.5 mg/kg): 81%; AUC0-inf ([5]; p.o. 10 mg/kg): 12376 ng·h/mL; Cmax ([5]; p.o. 10 mg/kg): 3537 ng/mL; Half life (t1/2) ([5]; p.o. 10 mg/kg): 2.2 h; Tmax ([5]; p.o. 10 mg/kg): 1.0 h; MIC90 [13]: >8 µg/mL
